Measurements reported in paper PMC11558128 (Advanced Science, 2024).
Positions of bridges follow the written chain, without caps; N, C: chain ends. Residues, ends and D or L forms follow the SMILES beside them.

How the values were obtained:
[1] = biological target: T1, rKv4.3 (Rattus norvegicus, UniProt Q62897); assay: cell-based; details: vs HNTX-III
T1 construct: expressed in transfected cells; host or cells: HEK293T
T1 sequence (Q62897 1-655): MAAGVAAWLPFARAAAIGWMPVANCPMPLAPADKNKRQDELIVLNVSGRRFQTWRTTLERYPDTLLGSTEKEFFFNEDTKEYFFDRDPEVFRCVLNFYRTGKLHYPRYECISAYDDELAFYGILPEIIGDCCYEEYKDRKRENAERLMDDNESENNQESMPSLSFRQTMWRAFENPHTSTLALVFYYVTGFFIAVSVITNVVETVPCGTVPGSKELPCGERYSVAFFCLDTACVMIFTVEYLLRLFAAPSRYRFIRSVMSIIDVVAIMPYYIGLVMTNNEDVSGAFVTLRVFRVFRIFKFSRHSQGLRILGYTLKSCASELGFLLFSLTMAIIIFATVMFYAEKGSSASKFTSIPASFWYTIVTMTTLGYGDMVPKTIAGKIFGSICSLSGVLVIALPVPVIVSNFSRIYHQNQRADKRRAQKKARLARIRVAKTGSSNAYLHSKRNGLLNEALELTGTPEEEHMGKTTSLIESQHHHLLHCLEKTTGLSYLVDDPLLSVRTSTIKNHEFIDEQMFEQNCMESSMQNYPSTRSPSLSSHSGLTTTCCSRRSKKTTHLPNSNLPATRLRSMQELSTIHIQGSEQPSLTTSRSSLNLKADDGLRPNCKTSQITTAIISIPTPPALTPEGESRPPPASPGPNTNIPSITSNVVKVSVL

[2] = biological target: T2, hNav1.7 (Homo sapiens, UniProt Q15858); set-up: method as in 2 sources, one per row (each row's own in cited_ref): ref 11c (a number printed in a supplementary file, which may have a reference list of its own: not looked up in the article's list) ||| ref 11c = [11]; PMID 27129258; doi:10.1074/jbc.M116.725978; 11 a) G. L. Adams , P. S. Pall , S. M. Grauer , X. Zhou , J. E. Ballard , M. Vavrek , R. L. Kraus , P. Morissette , N. Li , S. Colarusso , E. Bianchi , A. Palani , R. Klein , C. T. John , D. Wang , M.; details: vs HNTX-III; ref 11c; cited from earlier work
T2 construct: expressed in transfected cells; host or cells: HEK293T

[3] = test system: C57BL/6 mice; assay: CFA-induced inflammatory pain model (von Frey paw withdrawal threshold); details: mouse, in vivo
Method: In the Complete Freund's adjuvant (CFA)–induced inflammatory pain modelinflammation is induced by injecting 15 µL of CFA into the intraplantar surface of the right hind paw of C57BL/6 mice (weight 18–20 g, 6–8 weeks, both sex).^[ [38] ^] Mechanical paw withdrawal thresholds are then measured using manual von Frey (Stoelting Co) after 2 days of CFA injection.

[4] = test system: C57BL/6 mice; assay: Spared nerve injury (SNI) neuropathic pain model; details: mouse, in vivo, ip
Method: In the spared nerve injury (SNI) neuropathic pain model,^[ [39] ^] C57BL/6 mice (weight 18–20 g, 6–8 weeks, both sex) were anesthetized with 3% halothane. The thigh was incised parallel to the femur, and the muscles were bluntly separated to expose the sciatic nerve. The sciatic nerve is ligated with 6.0 silk sutures. […] The paw withdrawal threshold to mechanical stimuli is measured between 0 and 180 min after drug administration.

T2 sequence (O60939 30-215): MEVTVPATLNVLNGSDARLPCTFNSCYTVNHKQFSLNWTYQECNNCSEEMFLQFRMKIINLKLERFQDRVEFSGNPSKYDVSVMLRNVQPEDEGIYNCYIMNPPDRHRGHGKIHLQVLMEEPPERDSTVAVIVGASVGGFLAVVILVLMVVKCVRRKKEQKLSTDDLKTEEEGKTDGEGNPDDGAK
T2 sequence (Q15858 other isoform, or with tags, fused parts or gaps): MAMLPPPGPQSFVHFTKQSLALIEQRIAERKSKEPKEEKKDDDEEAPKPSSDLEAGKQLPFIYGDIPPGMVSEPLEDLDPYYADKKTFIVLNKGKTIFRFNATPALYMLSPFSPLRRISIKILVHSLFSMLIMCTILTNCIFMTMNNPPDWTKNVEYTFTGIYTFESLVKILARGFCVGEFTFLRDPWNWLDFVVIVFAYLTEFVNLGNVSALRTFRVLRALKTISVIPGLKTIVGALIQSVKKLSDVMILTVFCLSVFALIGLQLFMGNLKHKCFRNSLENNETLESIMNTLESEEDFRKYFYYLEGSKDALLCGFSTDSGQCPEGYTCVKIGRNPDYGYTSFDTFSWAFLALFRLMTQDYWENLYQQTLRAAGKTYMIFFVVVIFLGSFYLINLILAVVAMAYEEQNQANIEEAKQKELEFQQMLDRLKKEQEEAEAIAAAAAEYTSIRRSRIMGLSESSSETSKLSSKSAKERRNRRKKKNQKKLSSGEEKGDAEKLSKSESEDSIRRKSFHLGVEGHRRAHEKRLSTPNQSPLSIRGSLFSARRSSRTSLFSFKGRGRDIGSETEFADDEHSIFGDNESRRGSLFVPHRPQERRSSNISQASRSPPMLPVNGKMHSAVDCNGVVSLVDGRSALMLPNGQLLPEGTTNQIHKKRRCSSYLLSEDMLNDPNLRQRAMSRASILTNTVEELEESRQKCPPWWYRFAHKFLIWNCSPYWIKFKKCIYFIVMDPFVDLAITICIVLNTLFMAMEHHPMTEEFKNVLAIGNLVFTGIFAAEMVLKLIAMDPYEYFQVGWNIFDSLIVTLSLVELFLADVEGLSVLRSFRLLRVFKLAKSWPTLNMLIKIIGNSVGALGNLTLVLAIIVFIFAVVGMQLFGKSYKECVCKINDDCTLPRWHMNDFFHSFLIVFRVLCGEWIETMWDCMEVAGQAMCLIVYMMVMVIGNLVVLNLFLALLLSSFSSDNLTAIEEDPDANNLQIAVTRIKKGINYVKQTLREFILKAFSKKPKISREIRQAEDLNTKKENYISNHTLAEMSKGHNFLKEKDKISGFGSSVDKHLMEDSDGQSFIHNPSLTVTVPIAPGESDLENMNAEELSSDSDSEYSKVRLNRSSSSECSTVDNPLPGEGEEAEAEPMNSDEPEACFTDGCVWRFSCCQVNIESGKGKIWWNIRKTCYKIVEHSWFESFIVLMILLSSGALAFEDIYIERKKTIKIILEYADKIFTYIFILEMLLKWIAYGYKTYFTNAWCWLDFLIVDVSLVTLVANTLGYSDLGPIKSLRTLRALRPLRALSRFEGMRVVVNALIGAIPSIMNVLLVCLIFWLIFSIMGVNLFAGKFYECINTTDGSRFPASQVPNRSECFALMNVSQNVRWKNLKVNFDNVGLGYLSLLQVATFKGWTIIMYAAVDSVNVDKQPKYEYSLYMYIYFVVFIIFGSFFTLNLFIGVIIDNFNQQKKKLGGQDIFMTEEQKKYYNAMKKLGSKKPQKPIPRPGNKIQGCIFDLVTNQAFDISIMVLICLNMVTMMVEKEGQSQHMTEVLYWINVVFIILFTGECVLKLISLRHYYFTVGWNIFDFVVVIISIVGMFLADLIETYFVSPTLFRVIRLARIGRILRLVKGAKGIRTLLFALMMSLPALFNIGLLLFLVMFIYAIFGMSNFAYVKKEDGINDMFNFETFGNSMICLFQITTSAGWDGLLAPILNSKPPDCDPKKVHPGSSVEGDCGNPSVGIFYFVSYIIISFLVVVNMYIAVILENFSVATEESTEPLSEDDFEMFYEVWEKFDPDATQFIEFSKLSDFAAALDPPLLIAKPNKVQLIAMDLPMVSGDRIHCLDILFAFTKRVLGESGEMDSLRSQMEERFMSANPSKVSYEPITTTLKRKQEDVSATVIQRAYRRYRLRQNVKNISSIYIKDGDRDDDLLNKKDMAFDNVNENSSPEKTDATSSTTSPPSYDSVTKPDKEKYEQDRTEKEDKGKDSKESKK
T2 sequence (Q07699 19-218, further chain): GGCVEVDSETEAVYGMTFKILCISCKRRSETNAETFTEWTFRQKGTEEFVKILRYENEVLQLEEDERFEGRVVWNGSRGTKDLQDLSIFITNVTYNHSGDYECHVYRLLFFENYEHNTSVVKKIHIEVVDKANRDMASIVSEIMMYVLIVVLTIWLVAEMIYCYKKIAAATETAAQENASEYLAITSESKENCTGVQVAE

SMILES | improved potency for rKv4.3 [1] [fold] | improved potency on hNav1.7 currents [2] [fold] | duration of anti-allodynic effect, CFA model [3] [h] | mechanical allodynia induced by SNI compared with the saline group [4]
CC(C)C[C@@H]1NC(=O)[C@H](Cc2ccc(O)cc2)NC(=O)[C@H](CC(N)=O)NC(=O)[C@H](CCCCN)NC(=O)[C@@H]2CSSC[C@H](NC(=O)CNC(=O)[C@@H](N)CCCCN)C(=O)N[C@@H](CCCCN)C(=O)NCC(=O)N[C@@H](Cc3ccccc3)C(=O)NCC(=O)N[C@@H](CC(=O)O)C(=O)N[C@@H](CO)C(=O)N[C@H]3CSSC[C@H](NC1=O)C(=O)N[C@@H](CO)C(=O)N[C@@H](CO)C(=O)N[C@@H](CCCCN)C(=O)N[C@@H](Cc1c[nH]cn1)C(=O)N[C@@H](CCCCN)C(=O)N[C@@H](Cc1c[nH]c4ccccc14)C(=O)N[C@H](C(=O)N[C@@H](CCCCN)C(=O)N[C@H](C(=O)N[C@@H](Cc1ccc(O)cc1)C(=O)N[C@@H](CC(C)C)C(=O)N[C@H](C(N)=O)C(C)C)C(C)C)CSSC[C@H](NC(=O)[C@H](CCC(=O)O)NC(=O)[C@H](CC(N)=O)NC(=O)[C@H](CCCCN)NC(=O)CNC(=O)[C@@H]1CCCN1C(=O)[C@H]([C@@H](C)O)NC3=O)C(=O)N2 [HNTX-III-H4] (H-KGCKGFGDSCTPGKNECCKNYLCSSKHKWCKVYLV-NH2; disulfide 3-18, 10-23, 17-30; N-terminus and C-terminus assumed) | 45 | 30 | – | –
CN1CC[C@]23c4c5ccc(O)c4O[C@H]2[C@@H](O)C=C[C@H]3[C@H]1C5 [morphine] | – | – | 2 | significantly decreased
